Reference: patent US6833376B2, “5-aminoalkyl and 5-aminocarbonyl substituted indoles” (H. Lundbeck A/S, priority 1999, dated 2004)
Read-outs that look alike come from different tables or passages of the source.

What was measured:
α1-adrenoceptors = test: Inhibition of [3H]-prazosin binding to α1-adrenoceptors in rat brain in vitro; conditions: [3H]-prazosin 0.25 nM, membranes from rat brain
Experimental: Method and results in Hyttel & Larsen, J. Neurochem.
The tissue is homogenized (Ultra Turrax, 10 se) in 10 mL of ice cold 50 mM tris buffer pH 7.7 (at 25° C.). The homogenate is centiflged twice at 20,000 g for 10 min at 4° C. with rehomogenization of the pellet in 10 ml ice-cold buffer. The final pellet is homogenized in 250 vol (w/v) ice-cold buffer.
The binding experiment is initiated by addition of […] of tissue suspension (final tissue content corresponds to 3 mg original tissue) and by placing the 96 deep well titer plate in a 25° C. water bath. AU tests are made in triplicates. After incubation for 20 min, the samples are filtered on a Brandel harvester under vacuum (18 inch. Hg) through printed filtermat B (13 mm). Titerplates and filter are washed 1×10 sec flow 50 L/h with ice cold buffer.
The filter mat is dried for 1 h at 110° C. and then placed in a sample bag with Meltilex B/HS (14.5 g) and melted together on the T-Tray heat sealer.
(§1) For determination of the inhibition of binding, five concentrations of drugs covering 3 decades are used.

dopamine D2 receptors = biological target: T1, dopamine D2 receptors (Rattus norvegicus, UniProt P61169); test: Inhibition of [3H]-spiperone binding to dopamine D2 receptors in rat corpus striatum in vitro
T1 construct: rats (125-250 g) are sacrificed and striatal tissue is dissected and weighed; from tissue; host or cells: rat corpus striatum membranes (male Wistar rats)
T1 sequence (P61169 whole entry): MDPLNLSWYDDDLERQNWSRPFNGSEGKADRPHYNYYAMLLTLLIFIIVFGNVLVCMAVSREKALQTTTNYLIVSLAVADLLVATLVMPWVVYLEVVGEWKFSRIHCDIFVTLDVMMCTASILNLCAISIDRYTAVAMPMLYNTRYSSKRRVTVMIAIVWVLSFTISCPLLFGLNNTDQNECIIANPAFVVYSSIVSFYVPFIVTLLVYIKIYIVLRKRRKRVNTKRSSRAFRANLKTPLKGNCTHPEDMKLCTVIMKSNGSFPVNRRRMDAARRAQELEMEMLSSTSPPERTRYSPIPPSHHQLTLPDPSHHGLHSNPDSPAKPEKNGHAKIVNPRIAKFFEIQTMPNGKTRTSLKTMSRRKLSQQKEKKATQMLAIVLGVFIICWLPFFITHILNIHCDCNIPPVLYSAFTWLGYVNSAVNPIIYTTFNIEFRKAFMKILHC
Experimental: Inhibition of [^3H]-Spiperone Binding to Dopamnine D2 Receptors in Rat Corpus Striatum in vitro
By this method, the inhibition by drugs of the binding of [^3H]-spiperone (=^3H]-spiro-peridol) (0.5 nM) to dopamine D-2 receptors in membranes from rat corpus striatum is determined in vitro. […] PharmacoL. ToxicoL. […] This is a test for dopamnine D2 receptor binding affinity in vitro.
The tissue is homogenized (Ultra Turrax, 10 sec.) in 10 mL of ice-cold 50 mM K-phosphate buffer pH 7.4 (at 25° C.). The homogenate is centrifuiged twice at 20,000 g for 10 min at 4° C. with rehomogenization of the pellet in 10 mL ice-old buffer. The final pellet is homogenized in 1300 vol (w/v) ice-cold buffer.
The binding experiment is initiated by addition of 100 μl of [^3H]-spiperone (final concentration 0.5 nM) and by placing the tubes in a 37° C. water bath. […] The tubes are rinsed with 5 mL ice-old buffer which are then poured on the filters. Thereafter, the filters are washed with 2×5 mL of buffer. The filters are placed in counting vials and 4 mL of appropriate scintillation fluid (e.g. Picofluor™15) are added. After shaking for 1 h and storage for 2 hrs in the dark, the content of radioactivity is determined by liquid scintillation counting. Specific binding is obtained by subtracting the nonspecific binding in the presence of 10 μM of 6,7-ADTN.
For determination of the inhibition of binding, five concentrations of drugs covering 3 orders of magnitude are used.
[^3H]-Spiperone=[phenyl-4-^3H]-spiperone from Amersham International plc. England, specific activity 15-25 Ci/mmol.

[1] = biological target: T2, serotonin S2 (5HT2A) receptors (Rattus norvegicus, UniProt P14842); test: Inhibition of [3H]-ketanserin binding to serotonin S2 (5HT2A) receptors in rat cortex in vitro
T2 construct: rats (125-250 g) are sacrificed and cortical tissue is dissected and weighed; from tissue; host or cells: rat cortex membranes (male Wistar rats)
T2 sequence (P14842 whole entry): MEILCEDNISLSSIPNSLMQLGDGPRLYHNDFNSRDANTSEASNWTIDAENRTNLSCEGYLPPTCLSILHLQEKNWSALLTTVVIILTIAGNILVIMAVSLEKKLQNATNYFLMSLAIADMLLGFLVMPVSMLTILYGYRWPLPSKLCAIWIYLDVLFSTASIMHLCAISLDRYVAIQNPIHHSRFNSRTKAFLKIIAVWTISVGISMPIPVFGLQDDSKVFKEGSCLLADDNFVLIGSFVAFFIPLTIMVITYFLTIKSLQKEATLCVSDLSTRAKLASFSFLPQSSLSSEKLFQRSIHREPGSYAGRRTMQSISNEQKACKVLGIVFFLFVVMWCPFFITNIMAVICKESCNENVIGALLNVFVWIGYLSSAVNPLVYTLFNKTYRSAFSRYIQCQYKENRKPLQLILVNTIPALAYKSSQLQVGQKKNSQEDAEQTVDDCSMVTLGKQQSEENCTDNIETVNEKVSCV
Experimental: INHIBITION OF [^3H]-KETANSERIN BINDING TO SEROTONIN S2 (5HT2A) RECEPTORS IN RAT CORTEX IN VITRO
By this method, the inhibition by drugs of the binding of [^3H]-ketanserin (0.5 nM) to serotonin S2 (5-HT2) receptors in membranes from rat cortex is determined in vitro.
The tissue is homogenized (Ultra Turrax, 10 sec) in 10 mL of ice cold 50 mM tris buffer pH 7.7 (at 25° C.). The centrifige glassware used in this step has been rinsed by sonication for 10 min in ethanol. The homogenate is centrifuged twice at 20,000 g for 10 min. at 4° C., with rehomogenization of the pellet in 10 mnL ice-cold buffer. The final pellet is homogenized in 250 vol (w/v) ice-cold buffer.
Incubation tubes (96 deep well titer plate) kept on ice receive 50 mL of [^3H]-ketanserin (final concentration 0.5 nM).
The binding experiment is initiated by addition of […] of tissue suspension (final tissue content corresponds to 4 mg original tissue) and by placing the 96 deep well titer plate in a 37° C. water bath. All tests are made in triplicates.
After incubation for 30 min, the samples are filtered on a Brandel harvester under vacuum (18 inch Hg) through printed filter mat B (13 mm). Titerplate and filter are washed 2×10 sec. flow 50L/h with ice cold buffer.
The printed filter mat with purred labelled tissue are dried for 1 h at 110° C. and hereafter placed in a sample bag with Meltilex B/HS 14.5 g and melted together on the T-tray heat seal.
Specific binding is obtained by subtracting the nonspecific binding in the presence of 1 mM mianserin.
as §1
[^3H]-ketanserin=(ethylene-^3H)-ketanserin hydrochloride from New England Nuclear, specific activity […].

[2] = [3H]-spiperone 0.5 nM, membranes from rat corpus striatum, read-out: IC50 values D2
[3] = [3H]-ketanserin 0.5 nM, membranes from rat cortex, read-out: IC50 values 5-HT2A

Structure (SMILES): O=C1NCCN1CCN1CCC(c2cn(-c3ccc(F)cc3)c3ccc(Cl)cc23)CC1 [Sertindole, sertindole, reference compound]
- IC50 (α1-adrenoceptors): 3.4 nM

Structure (SMILES): CN(C)Cc1ccc2c(c1)c(C1=CCN(CCN3CCNC3=O)CC1)cn2-c1ccc(F)cc1 [Compound 7d, 1-[2-[4-[5-Dimethylaminomethyl-1-(4-fluorophenyl)-1H-indol-3-yl]-1,2,3,6-tetrahydropyridin-1-yl]ethyl]-2-imidazolidinon]
- melting point: 146 to 148 °C
- IC50 (α1-adrenoceptors): 0.53 nM
- IC50 (dopamine D2 receptors): 35 nM
- IC50 [1]: 80 nM

Structure (SMILES): COc1cc2nc(N3CCN(C(=O)c4ccco4)CC3)nc(N)c2cc1OC [Prazosin, reference compound]
- IC50 (α1-adrenoceptors): 0.36 nM

Structure (SMILES): CN(C)C(=O)c1ccc2c(c1)c(C1CCN(CCN3CCNC3=O)CC1)cn2-c1ccc(F)cc1 [Compound 7b, N,N-Dimethyl-1-(4-fluorophenyl)-3-[1-[2-(2-imidazolidinon-1-yl)ethyl]4-piperidinyl]-1H-indole-5-carboxamide]
- melting point: 172 to 176 °C
- IC50 (α1-adrenoceptors): 5.4 nM
- IC50 (dopamine D2 receptors; [2]): 170 nM
- IC50 [1, 3]: 18 nM

Structure (SMILES): CN(C)Cc1ccc2c(c1)c(C1CCN(CCN3CCNC3=O)CC1)cn2-c1ccc(F)cc1 [Compound 7c, 1-[2-[4-[5-Dimethylaminomethyl-1-(4-fluorophenyl)-1H-indol-3-yl]-1-piperidinyl]ethyl]-2-imidazolidinon]
- melting point: 166 to 174 °C
- IC50 (α1-adrenoceptors): 1.3 nM
- IC50 (dopamine D2 receptors; [2]): 180 nM
- IC50 [1, 3]: 50 nM
